Measured values published in patent US9951149B2, “Reversible heparin molecules and methods of making and using the same” (The University of North Carolina at Chapel Hill, priority 2013, dated 2018).
“Also recorded” adds a separate entry of the source.

Tests used:
[1] = Clearance of LMWHs in vivo: retention of 35S-labeled material in mouse liver; conditions: BALB/c mice, lateral tail vein injection, 12 min (FIG. 4A)
Description: The mouse experiment was approved by the University of Nebraska Animal Care and Use Committees. Five to six week old BALB/c mice (Harlan Laboratories, Indianapolis, Ind., United States of America) weighing 18-20 g were anesthetized in a small 34° C. chamber with a flow of oxygen containing 4% isoflurane. Once the mice were unconscious, they were individually placed on a heated pad with a nose cone fitted over their snout with a constant flow of oxygen containing 2% isoflurane. A specific amount of ^35S-labeled LMWH Compound, LMWH, or UFH was injected via the lateral tail vein using a 27G1/2 needle mounted on a 1 ml syringe. The labeled material was allowed to circulate in the blood for 12 min while the mouse lay unconscious. The abdominal cavity was exposed by incision and the liver was collected, washed, and weighed. Approximately 100 mg from each of the lobes was homogenized in 0.75 ml 1% NP-40 and then centrifuged at 12,000×g for 2 min to pellet insoluble material. The supernatant was then added to 4 ml scintillation fluid, mixed for 30 min by rocking and then radioactivity was assessed by a Beckman Coulter LS6500 scintillation counter. The data is presented as the percentage of CPM in total liver divided by total CPM injected±standard error of 3-5 mice per ligand.

[2] = target: T1, Stabilin-2 receptor (190-HARE) (Homo sapiens, UniProt Q8WWQ8); experiment: Stabilin-2 mediated endocytosis of 35S-labeled LMWHs in Flp-In-293 cells; type: cell-based; conditions: Flp-In-293 cells expressing 190-HARE, 3 h at 37° C. (FIG. 5)
T1 construct: The Stabilin-2 cell line expressing the 190-HARE; expressed in transfected cells
T1 sequence (Q8WWQ8 1136-2551 limits assumed): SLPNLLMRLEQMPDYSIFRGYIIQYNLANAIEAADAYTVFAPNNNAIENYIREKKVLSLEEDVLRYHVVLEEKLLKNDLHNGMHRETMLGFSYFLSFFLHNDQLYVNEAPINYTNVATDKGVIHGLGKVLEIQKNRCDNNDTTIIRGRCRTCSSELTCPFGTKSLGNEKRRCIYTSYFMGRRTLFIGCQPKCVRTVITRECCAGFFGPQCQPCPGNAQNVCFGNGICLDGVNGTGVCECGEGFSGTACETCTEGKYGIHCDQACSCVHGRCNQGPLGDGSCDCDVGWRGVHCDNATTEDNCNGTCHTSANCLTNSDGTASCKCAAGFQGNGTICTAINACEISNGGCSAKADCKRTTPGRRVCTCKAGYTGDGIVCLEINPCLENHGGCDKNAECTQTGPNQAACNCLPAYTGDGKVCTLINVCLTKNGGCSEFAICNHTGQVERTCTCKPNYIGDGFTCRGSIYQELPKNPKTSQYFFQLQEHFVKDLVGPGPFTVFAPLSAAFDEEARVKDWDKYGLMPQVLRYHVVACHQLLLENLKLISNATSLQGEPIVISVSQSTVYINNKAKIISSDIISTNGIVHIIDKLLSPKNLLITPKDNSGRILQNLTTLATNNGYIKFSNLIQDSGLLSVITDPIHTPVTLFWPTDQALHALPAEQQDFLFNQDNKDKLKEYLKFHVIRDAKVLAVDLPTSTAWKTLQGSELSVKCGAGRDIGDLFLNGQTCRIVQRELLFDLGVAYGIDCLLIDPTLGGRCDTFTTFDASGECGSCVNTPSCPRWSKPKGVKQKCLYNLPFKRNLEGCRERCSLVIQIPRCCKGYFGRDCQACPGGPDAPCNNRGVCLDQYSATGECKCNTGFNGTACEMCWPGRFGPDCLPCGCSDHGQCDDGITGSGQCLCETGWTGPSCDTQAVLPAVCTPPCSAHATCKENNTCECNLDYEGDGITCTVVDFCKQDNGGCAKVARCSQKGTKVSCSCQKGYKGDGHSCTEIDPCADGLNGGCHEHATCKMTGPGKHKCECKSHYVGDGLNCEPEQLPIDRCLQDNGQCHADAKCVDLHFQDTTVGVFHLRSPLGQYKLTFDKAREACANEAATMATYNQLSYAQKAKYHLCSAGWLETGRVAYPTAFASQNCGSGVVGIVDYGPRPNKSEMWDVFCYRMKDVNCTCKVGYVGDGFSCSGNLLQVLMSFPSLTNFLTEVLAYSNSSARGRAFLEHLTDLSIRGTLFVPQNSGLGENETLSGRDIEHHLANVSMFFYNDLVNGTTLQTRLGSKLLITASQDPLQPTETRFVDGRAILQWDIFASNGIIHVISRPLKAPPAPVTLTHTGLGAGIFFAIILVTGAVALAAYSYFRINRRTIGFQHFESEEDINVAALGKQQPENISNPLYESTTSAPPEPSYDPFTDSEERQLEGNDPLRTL
Description: FIG. 5 is a histogram of endocytosis of ^35S-labeled synthetic LMWHs in Flp-In-293 cells. The cells were stably transfected with the plasmid expressing the Stabilin-2 receptor (190-HARE). The internalization value was calculated by subtracting the nonspecific internalization background from the total internalization of a ^35S-labeled Compound. The background was determined by mixing the ^35S-labeled Compound with at least 100-fold molecular excess of unlabeled UFH.
The Stabilin-2 cell line expressing the 190-HARE (Harris et al., J. Biol. Chem. 279, 36201-36209, 2004) was grown to 90% confluency with DMEM+8% FBS+50 μgml^−1 Hygromycin B in 24-well plates for at least 2 days prior to the experiment in a standard tissue culture incubator. Endocytosis medium (DMEM+0.05% BSA) containing a known amount of ^35S-labeled LMWH Compound, LOVENOX®, or UFH was added to each well in triplicate and allowed to incubate with the cells for 3 h at 37° C., 5% CO2. Receptor specific internalization was assessed by incubating each radiolabeled ligand with at least a 100-fold excess of unlabeled UFH. The cells were then washed with Hank's Balanced Salt Solution (1.26 mM CaCl2, 5.33 mM KCl, 0.44 mM KH2PO4, 0.5 mM MgCl2-6H2O, 0.41 mM MgSO4-7H2O, 138 mM NaCl, 4.0 mM NaHCO3, […], 0.3 mM phenol red, pH 7.2) three-times, and cells were lysed in 0.4 ml 0.3 N NaOH. 0.35 ml of the cell lysate mixture was mixed with 4 ml scintillation fluid (Perkin Elmer, Waltham, Mass., United States of America) and radioactivity was measured by a Beckman Coulter LS6500 scintillation counter. The remaining 0.05 ml cell lysate was used to determine protein levels using the Bradford reagent (Sigma-Aldrich). The data was calculated as the percentage of specific CPM internalized of the total amount added per μg cell lysate protein±standard deviation.

| SMILES | endocytosis mediated by Stabilin-2 (internalization) [2] | retention in the liver [1] |
| --- | --- | --- |
| O=C(O)C1OC(OC2C(COS(=O)(=O)O)OC(OC3C(C(=O)O)OC(OC4C(COS(=O)(=O)O)OC(OC5C(C(=O)O)OC(OC6C(COS(=O)(=O)O)OC(OC7C(C(=O)O)OC(OC8C(COS(=O)(=O)O)OC(OC9C(C(=O)O)OC(Oc%10ccc([N+](=O)[O-])cc%10)C(O)C9O)C(NS(=O)(=O)O)C8O)C(OS(=O)(=O)O)C7O)C(NS(=O)(=O)O)C6O)C(OS(=O)(=O)O)C5O)C(NS(=O)(=O)O)C4O)C(OS(=O)(=O)O)C3O)C(NS(=O)(=O)O)C2OS(=O)(=O)O)C(O)C(O)C1OC1OC(COS(=O)(=O)O)C(O)C(O)C1NS(=O)(=O)O (stereo not shown) [Compound 3] | significant endocytosis | retained in the liver; also recorded: internalized in mice liver |
| CC(=O)NC1C(OC2C(C(=O)O)OC(OC3C(COS(=O)(=O)O)OC(OC4C(C(=O)O)OC(OC5C(COS(=O)(=O)O)OC(OC6C(C(=O)O)OC(OC7C(COS(=O)(=O)O)OC(OC8C(C(=O)O)OC(OC9C(COS(=O)(=O)O)OC(OC%10C(C(=O)O)OC(OC%11C(COS(=O)(=O)O)OC(OC%12C(C(=O)O)OC(Oc%13ccc([N+](=O)[O-])cc%13)C(O)C%12O)C(NS(=O)(=O)O)C%11O)C(OS(=O)(=O)O)C%10O)C(NS(=O)(=O)O)C9O)C(OS(=O)(=O)O)C8O)C(NS(=O)(=O)O)C7O)C(OS(=O)(=O)O)C6O)C(NS(=O)(=O)O)C5O)C(OS(=O)(=O)O)C4O)C(NS(=O)(=O)O)C3OS(=O)(=O)O)C(O)C2O)OC(COS(=O)(=O)O)C(O)C1O (stereo not shown) [Compound 4] | significant endocytosis | retained in the liver; also recorded: internalized in mice liver |
| CC(=O)NC1C(OC2C(C(=O)O)OC(OC3C(COS(=O)(=O)O)OC(OC4C(C(=O)O)OC(OC5C(COS(=O)(=O)O)OC(OC6C(C(=O)O)OC(OC7C(COS(=O)(=O)O)OC(OC8C(C(=O)O)OC(OC9C(COS(=O)(=O)O)OC(OC%10C(C(=O)O)OC(OC%11C(COS(=O)(=O)O)OC(OC%12C(C(=O)O)OC(Oc%13ccc([N+](=O)[O-])cc%13)C(O)C%12O)C(NS(=O)(=O)O)C%11O)C(OS(=O)(=O)O)C%10O)C(NS(=O)(=O)O)C9OS(=O)(=O)O)C(OS(=O)(=O)O)C8O)C(NS(=O)(=O)O)C7O)C(OS(=O)(=O)O)C6O)C(NS(=O)(=O)O)C5O)C(OS(=O)(=O)O)C4O)C(NS(=O)(=O)O)C3OS(=O)(=O)O)C(O)C2O)OC(COS(=O)(=O)O)C(O)C1O (stereo not shown) [Compound 5] | significant endocytosis | retained in the liver; also recorded: internalized in mice liver |

Second part, led by results:

| endocytosis mediated by Stabilin-2 (internalization) [2] | SMILES | retention in the liver [1] |
| --- | --- | --- |
| very low internalization | O=C(O)C1OC(OC2C(COS(=O)(=O)O)OC(OC3C(C(=O)O)OC(OC4C(COS(=O)(=O)O)OC(OC5C(C(=O)O)OC(Oc6ccc([N+](=O)[O-])cc6)C(O)C5O)C(NS(=O)(=O)O)C4O)C(OS(=O)(=O)O)C3O)C(NS(=O)(=O)O)C2OS(=O)(=O)O)C(O)C(O)C1OC1OC(COS(=O)(=O)O)C(O)C(O)C1NS(=O)(=O)O (stereo not shown) [Compound 1] | very low level of retention in the liver |
| very low internalization | O=C(O)C1OC(OC2C(COS(=O)(=O)O)OC(OC3C(C(=O)O)OC(OC4C(COS(=O)(=O)O)OC(OC5C(C(=O)O)OC(OC6C(COS(=O)(=O)O)OC(OC7C(C(=O)O)OC(Oc8ccc([N+](=O)[O-])cc8)C(O)C7O)C(NS(=O)(=O)O)C6O)C(OS(=O)(=O)O)C5O)C(NS(=O)(=O)O)C4O)C(OS(=O)(=O)O)C3O)C(NS(=O)(=O)O)C2OS(=O)(=O)O)C(O)C(O)C1OC1OC(COS(=O)(=O)O)C(O)C(O)C1NS(=O)(=O)O (stereo not shown) [Compound 2] | very low level of retention in the liver |
